Patent publication US8735411B2, “Macrocyclic benzofused pyrimidine derivatives” (AbbVie Inc., priority 2006, dated 2014)

Biological target: histamine H4 receptor (Homo sapiens, UniProt Q9H3N8)
Assay: In vitro histamine H4 potency in FLIPR (Ca2+ flux, HEK-293 cells coexpressing Gαqi5)
Type: cell-based
Parameters: expressed in transfected cells
Conditions: Kb for antagonists and inverse agonists, EC50 for partial agonists
Excerpt: There are many methods available to show the effectiveness of compounds as histamine H4 receptor ligands. Histamine H4 receptors from mammalian species have been cloned. Methods to clone, express, and assess the potency and functional activity of such cloned genes are well known to those skilled in the art of molecular biology. […] Before testing, cells are loaded with a Ca^+2 sensitive fluorescent dye, in this case Fluo-4. In the case of partial agonist or agonist ligands, addition of compound to the cells leads to the increase in intracellular Ca^+2 which is detected by FLIPR (Fluorescence Imaging Plate Reader; Molecular Devices, Sunnyvale, Calif.) technology. […] The fluorescence intensities measured before addition of the test compound are subtracted from the fluorescence intensities at later time points. Peak response values determined at each concentration of ligand are expressed as a percentage of the response obtained with the full agonist histamine. Concentration versus response data are analyzed to obtain compound potency as Kb values for antagonists and inverse agonists and as EC50 values for partial agonists.

| Potency [nM] | Molecule |
| --- | --- |
| 17 | 4-(4-Dimethylamino-piperidin-1-yl)-6,7-dihydro-5H-benzo[6,7]cyclohepta[1,2-d]pyrimidin-2-ylamine [Example 114] |
| 18 | CN[C@@H]1CCN(c2nc(N)nc3c2CC(C)c2ccccc2-3)C1 (stereo partly drawn) [Example 1, 6-Methyl-4-[(3R)-3-methylamino-pyrrolidin-1-yl]-5,6-dihydro-benzo[h]quinazolin-2-ylamine] |
| 44 | CNC1CN(c2nc(N)nc3c2CC(C)c2ccccc2-3)C1 (centres unmarked) [Example 2, 6-Methyl-4-(3-methylamino-azetidin-1-yl)-5,6-dihydro-benzo[h]quinazolin-2-ylamine] |
| 398 | CC1Cc2c(nc(N)nc2N2CCNCC2)-c2ccccc21 (centres unmarked) [Example 4, 6-Methyl-4-piperazin-1-yl-5,6-dihydro-benzo[h]quinazolin-2-ylamine] |
| 9.8 | CN1CCN(c2nc(N)nc3c2CCCc2ccccc2-3)CC1 [Example 5, 4-(4-Methyl-piperazin-1-yl)-6,7-dihydro-5H-benzo[6,7]cyclohepta[1,2-d]-pyrimidin-2-ylamine] |
| 33 | CNC1CN(c2nc(N)nc3c2COc2ccccc2-3)C1 [Example 8, 1-(3-Methylamino-azetidin-1-yl)-10H-9-oxa-2,4-diaza-phenanthren-3-ylamine] |
| 32 | CN[C@@H]1CCN(c2nc(N)nc3c2COc2ccccc2-3)C1 [Example 9, 1-(3-(R)-Methylamino-pyrrolidin-1-yl)-10H-9-oxa-2,4-diaza-phenanthren-3-ylamine] |
| 10 | Nc1nc2c(c(N3CCNCC3)n1)COc1ccccc1-2 [Example 10, 1-Piperazin-1-yl-10H-9-oxa-2,4-diaza-phenanthren-3-ylamine] |
| 7.8 | CN[C@@H]1CCN(c2nc(N)nc3c2CCCc2ccc(F)cc2-3)C1 [Example 11, 10-Fluoro-4-(3-(R)-methylamino-pyrrolidin-1-yl)-6,7-dihydro-5H-benzo[6,7]cyclohepta[1,2-d]pyrimidin-2-ylamine] |
| 7.4 | CNC1CN(c2nc(N)nc3c2CCCc2ccc(F)cc2-3)C1 [Example 12, 10-Fluoro-4-(3-methylamino-azetidin-1-yl)-6,7-dihydro-5H-benzo[6,7]cyclohepta[1,2-d]pyrimidin-2-ylamine] |
| 7.2 | Nc1nc2c(c(N3CCNCC3)n1)CCCc1ccc(F)cc1-2 [Example 13, 10-Fluoro-4-piperazin-1-yl-6,7-dihydro-5H-benzo[6,7]cyclohepta[1,2-d]pyrimidin-2-ylamine] |
| 331 | CN[C@H]1CCN(c2nc(N)nc3c2CCCc2ccccc2-3)C1 [Example 14, 4-[(3S)-3-Methylamino-pyrrolidin-1-yl]-6,7-dihydro-5H-benzo[6,7]cyclohepta[1,2-d]pyrimidin-2-ylamine] |
| 209 | CN1CC[C@@H]2CN(c3nc(N)nc4c3CCCc3ccccc3-4)C[C@@H]21 [Example 15, 4-((3aR,6aR)-1-Methyl-hexahydro-pyrrolo[3,4-b]pyrrol-5-yl)-6,7-dihydro-5H-benzo[6,7]cyclohepta[1,2-d]pyrimidin-2-ylamine] |
| 25704 | Nc1nc2c(c(N3CCC(N4CCCCC4)C3)n1)CCCc1ccccc1-2 (centres unmarked) [Example 18, 4-(3-Piperidin-1-yl-pyrrolidin-1-yl)-6,7-dihydro-5H-benzo[6,7]cyclohepta[1,2-d]pyrimidin-2-ylamine] |
| 32 | Nc1nc2c(c(N3CCNCC3)n1)CCCCc1ccccc1-2 [Example 20, 4-Piperazin-1-yl-5,6,7,8-tetrahydro-1,3-diaza-dibenzo[a,c]cycloocten-2-ylamine] |
| 5623 | Nc1nc2c(c(N3CCNCC3)n1)CCCCCc1ccccc1-2 [Example 21, 4-Piperazin-1-yl-6,7,8,9-tetrahydro-5H-1,3-diaza-dibenzo[a,c]cyclononen-2-ylamine] |
| 56 | CN[C@@H]1CCN(c2nc(N)nc3c2CCCCCc2ccccc2-3)C1 [Example 23, 4-(3-(R)-Methylamino-pyrrolidin-1-yl)-6,7,8,9-tetrahydro-5H-1,3-diaza-dibenzo[a,c]cyclononen-2-ylamine] |
| 148 | Nc1nc2c(c(N3CC[C@@H](N)C3)n1)CCCCCc1ccccc1-2 [Example 24, 4-((R)-3-Amino-pyrrolidin-1-yl)-6,7,8,9-tetrahydro-5H-1,3-diaza-dibenzo[a,c]cyclononen-2-ylamine] |
| 646 | Nc1nc2c(c(N3CC[C@H](N)C3)n1)CCCCCc1ccccc1-2 [Example 25, 4-((S)-3-Amino-pyrrolidin-1-yl)-6,7,8,9-tetrahydro-5H-1,3-diaza-dibenzo[a,c]cyclononen-2-ylamine] |
| 115 | CNC1CN(c2nc(N)nc3c2CCCCCc2ccccc2-3)C1 [Example 26, 4-(3-Methylamino-azetidin-1-yl)-6,7,8,9-tetrahydro-5H-1,3-diaza-dibenzo[a,c]cyclononen-2-ylamine] |
| 16596 | Nc1nc2c(c(N3CC[C@H]4CNC[C@H]43)n1)CCCCCc1ccccc1-2 [Example 27, 4-((3aS,6aS)-Hexahydro-pyrrolo[3,4-b]pyrrol-1-yl)-6,7,8,9-tetrahydro-5H-1,3-diaza-dibenzo[a,c]cyclononen-2-ylamine] |
| 15849 | Nc1nc2c(c(N3C[C@@H]4C[C@H]3CN4)n1)CCCCCc1ccccc1-2 [Example 28, 4-((1S,4S)-2,5-Diaza-bicyclo[2.2.1]hept-2-yl)-6,7,8,9-tetrahydro-5H-1,3-diaza-dibenzo[a,c]cyclononen-2-ylamine] |
| 39 | CN1CCN(c2nc(N)nc3c2CCOc2ccccc2-3)CC1 [Example 29, 4-(4-Methyl-piperazin-1-yl)-5,6-dihydro-7-oxa-1,3-diaza-dibenzo[a,c]cyclohepten-2-ylamine] |
| 166 | Nc1nc2c(c(N3CCNCC3)n1)CCOc1ccccc1-2 [Example 30, 4-Piperazin-1-yl-5,6-dihydro-7-oxa-1,3-diaza-dibenzo[a,c]cyclohepten-2-ylamine] |
| 27 | CN[C@@H]1CCN(c2nc(N)nc3c2CCOc2ccccc2-3)C1 [Example 31, 4-((R)-3-Methylamino-pyrrolidin-1-yl)-5,6-dihydro-7-oxa-1,3-diaza-dibenzo[a,c]cyclohepten-2-ylamine] |
| 8.7 | CNC1CN(c2nc(N)nc3c2CCOc2ccccc2-3)C1 [Example 32, 4-(3-Methylamino-azetidin-1-yl)-5,6-dihydro-7-oxa-1,3-diaza-dibenzo[a,c]cyclohepten-2-ylamine] |

| Molecule | Potency [nM] |
| --- | --- |
| Nc1nc2c(c(N3C[C@@H]4C[C@H]3CN4)n1)CCCc1ccccc1-2 [Example 17, 4-((1S,4S)-2,5-Diaza-bicyclo[2.2.1]hept-2-yl)-6,7-dihydro-5H-benzo[6,7]cyclohepta[1,2-d]pyrimidin-2-ylamine] | 912 |
| Nc1nc2c(c(N3CC[C@@H]4CNC[C@@H]43)n1)CCCc1ccccc1-2 [Example 19, 4-((3aR,6aR)-Hexahydro-pyrrolo[3,4-b]pyrrol-1-yl)-6,7-dihydro-5H-benzo[6,7]cyclohepta[1,2-d]pyrimidin-2-ylamine] | 603 |
| Nc1nc2c(c(N3CC4CNCC4C3)n1)CCCc1ccccc1-2 (centres unmarked) [Example 22, 4-(Hexahydro-pyrrolo[3,4-c]pyrrol-2-yl)-6,7-dihydro-5H-benzo[6,7]cyclohepta[1,2-d]pyrimidin-2-ylamine] | 66 |
